In US20040142977A1, “4-Substituted-picolinic acid amide derivatives useful as fungicides” (priority 2001, published 2004) one finds melting point data, which are given here for 1 compound.

Regarding `O=Cc1ccnc(C(=O)Nc2ccc(Oc3ccc(C(F)(F)F)cc3)cc2)c1O` [1-2, 2-{N-para-[4-(trifluoromethylphenoxy)phenyl]} aminocarbonyl-3-hydroxy-4-formyl pyridine], the melting point (in general, the temperature, or range, at which the solid turns liquid) turned out to be 160 °C.
